This is an account of results in paper PMC11249646, “Small-Molecule Disruptors of the Interaction between Calcium- and Integrin-Binding Protein 1 and Integrin αIIbβ3 as Novel Antiplatelet Agents” (ACS Pharmacology & Translational Science, 2024).

pIC50: −log10 of the molar value. Read-outs that look alike come from different tables or passages of the source.

The test concerns the target T1, CIB1 and αIIb interaction (CIB1-GST : F-αIIb peptide) (Homo sapiens, UniProt Q99828).
T1 construct: made in house; host or cells: BL-21 plus RIL cells (E. coli)
T1 sequence (Q99828 1-191): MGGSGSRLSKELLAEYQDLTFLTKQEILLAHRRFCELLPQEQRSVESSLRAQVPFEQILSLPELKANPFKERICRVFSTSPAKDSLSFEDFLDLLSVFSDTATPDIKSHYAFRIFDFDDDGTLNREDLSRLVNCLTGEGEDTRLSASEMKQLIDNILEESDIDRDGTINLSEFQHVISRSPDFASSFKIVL
The test can be described thus: FP assay, 1536-well qHTS format (primary and confirmatory screen). The test is classed as binding. The conditions noted are these: for Efficacy (%): negative = inhibition; for Curve Class: negative sign = inhibitory curve; for pIC50: read-out: IC50.

Where [1] appears, read: qHTS primary screen hits, Table S2.
[2] abbreviates: qHTS primary screen hits, Table S2, several classes where COUNT > 1.
Where [3] appears, read: qHTS primary screen of LOPAC/NPACT libraries.

`CC1=C(C(=O)N(C)C)C(c2ccccc2Br)N=C(Nc2nc3ccccc3o2)N1.O=C(O)C(F)(F)F` (centres unmarked) [NCGC00229733-01]: under setting [1], the “Efficacy (%)” value is -27%, the “Curve Class” value is -2.4 and the negative-log IC50 (pIC50) is 4.25.
Regarding `CN1CCN(c2ccc(NC(=O)CN(C)Cc3c(O)ccc4ccccc34)cc2)CC1.O=C(O)C(F)(F)F` [NCGC00229739-01], under setting [1], the “Efficacy (%)” value was -49% and the pIC50 is 4.05. Further, the “Curve Class” value under setting [2] is recorded as -3.
The matching figures for `CC(C)(C)CNc1ncnc2ccc(-c3ccc(CO)o3)cc12.O=C(O)C(F)(F)F` [NCGC00238375-01]: -42%, 4.30 and -2.2.
The matching figures for `O=C(O)C(F)(F)F.OCc1ccc(-c2ccc3ncnc(N4CCOCC4)c3c2)o1` [NCGC00238384-01]: -42%, 4.35 and -2.2.
Consider `COc1cc(N2CCC(N3CCN(C)CC3)CC2)ccc1Nc1ncc(Cl)c(Nc2ccccc2S(=O)(=O)C(C)C)n1` [NCGC00238453-07], for which, under setting [3], the “Efficacy (%)” value is reported as -24%, the “Curve Class” value was -2.4 and the pIC50 is 4.25.
With `O=C(Nc1ccc(Cl)c(Cl)c1)Nc1nnc(N2CCNCC2)s1.O=C(O)C(F)(F)F` [NCGC00238616-01], under setting [1], the “Efficacy (%)” value was -35% and the pIC50 was 4.10. Besides, under setting [2], the “Curve Class” value is listed as -2.4.
`Cc1ccc(C)c(SC2=NS(=O)(=O)c3cc(C(=O)Nc4ccc5ncccc5c4)ccc32)c1` [NCGC00238689-01]: under setting [1], the “Efficacy (%)” value was -27%, the “Curve Class” value was -2.4 and the negative logarithm of the IC50 (pIC50) is 4.35.
`Cc1ccc(OCCn2c3c(c4ccccc42)CN(C(=O)C2CCCCC2)CC3)cc1.O=C(O)C(F)(F)F` [NCGC00238717-01]: under setting [1], the “Efficacy (%)” value is reported as -46% and the negative-log IC50 (pIC50) is 4.25. For the same molecule, the “Curve Class” value under setting [2] is -2.4.
The matching figures for `O=C(O)C(F)(F)F.O=C(O)c1ccc(O)c2ncc(N3CCN(Cc4ccccc4)CC3)cc12` [NCGC00241045-04]: -24%, 4.25 and -2.4.
The matching figures for `CC(=O)Nc1sc2c(c1-c1nc3ccccc3s1)CCN(C1COC1)C2.O=C(O)C(F)(F)F` [NCGC00241066-01]: -83%, 4.85 and -1.2.
With `Cc1ccnc(NC(=S)N2CCc3ccccc3C2)c1.O=C(O)C(F)(F)F` [NCGC00241083-01], under setting [1], the “Efficacy (%)” value is recorded as -23% and the negative-log IC50 (pIC50) is 4.10. Moreover, the “Curve Class” value under setting [2] is on record as -2.4.
For the molecule `Cc1ccnc(N(C)C(=S)N2CCN(c3cccc(C(F)(F)F)c3)CC2)c1.O=C(O)C(F)(F)F` [NCGC00241084-01], under setting [1], the “Efficacy (%)” value is reported as -24%, the “Curve Class” value is -2.4 and the pIC50 was 4.30.
For the molecule `Cc1ccc(-n2nc(C(C)(C)C)cc2NC(=O)Nc2ccc(OCCN3CCOCC3)c3ccccc23)cc1` [NCGC00241104-02], under setting [1], the “Efficacy (%)” value is listed as -32% and the pIC50 was 4.35. For the same molecule, under setting [2], the “Curve Class” value is -2.4.
The matching figures for `Cc1ccnc(NC(=S)N2CC[C@@H](Nc3cccc(C(F)(F)F)c3)C2)c1` [NCGC00241356-01]: -31%, 4.10 and -2.4.
The matching figures for `Cc1ccn2c(Nc3ccc4c(c3)OCO4)c(-c3ccccn3)nc2c1.O=C(O)C(F)(F)F` [NCGC00241360-01]: -51%, 4.25 and -2.4.
The matching figures for `Cc1cc2c(cc1C1(c3ccc(C(=O)O)cc3)CC1)C(C)(C)CCC2(C)C` [NCGC00241454-01]: -27%, 4.10 and -2.4.
As for `COc1ccc(CNC(=O)c2ccc3c(c2)NC(=O)c2ccccc2S3)cc1` [NCGC00241665-01], under setting [1], the “Efficacy (%)” value is listed as -27%, the “Curve Class” value is on record as -2.4 and the pIC50 was 4.25.
The matching figures for `CC(=O)O.Cc1ccc(OCCn2c(CCNC(=O)c3ccc(N)cc3)nc3ccccc32)cc1` [NCGC00241723-01]: -31%, -1.4 and 4.35.
On to `Cc1ccnc(NC(=S)N2CCN(c3cccc(C(F)(F)F)c3)CC2)n1.O=C(O)C(F)(F)F` [NCGC00242308-01], for which, under setting [1], the “Efficacy (%)” value is -41% and the pIC50 was 4.10. Further, the “Curve Class” value under setting [2] is given as -2.2.
In the case of `Cc1ccc(NS(=O)(=O)c2cc(Br)cc3c2NC(=O)CC3)cc1Cl.O=C(O)C(F)(F)F` [NCGC00242331-01], under setting [1], the “Efficacy (%)” value was -33%, the “Curve Class” value is -2.2 and the pIC50 was 4.30.
On to `N#C[C@@H]1C[C@@H]2C[C@@H]2N1C(=O)[C@@H](N)C12CC3CC(CC(O)(C3)C1)C2` [NCGC00242597-01], for which, under setting [1], the “Efficacy (%)” value is reported as -49% and the pIC50 was 4.35. Moreover, the “Curve Class” value under setting [2] was -2.2.
The matching figures for `O=C(O)C(F)(F)F.O=C1CCCC2=C1C(c1n[nH]cc1Cl)NC(Nc1nc3ccccc3o1)=N2` (centres unmarked) [NCGC00242659-02]: -31%, 4.50 and -2.4.
The matching figures for `Cc1cc(C)nc(NC(=S)N2CCN(c3cc4ccccc4cn3)CC2)c1.O=C(O)C(F)(F)F` [NCGC00244142-01]: -31%, 4.10 and -2.4.
For `Cc1cc(C)nc(NC(=S)N2CCN(c3cccc4ccncc34)CC2)c1.O=C(O)C(F)(F)F` [NCGC00244146-01], under setting [1], the “Efficacy (%)” value is reported as -30%, the “Curve Class” value is reported as -2.4 and the pIC50 is 4.10.
As for `Cc1cc(C)nc(NC(=S)N2CCN(c3ccc4nonc4c3)CC2)c1.O=C(O)C(F)(F)F` [NCGC00244156-01], under setting [1], the “Efficacy (%)” value was -25% and the pIC50 is 4.30. Under setting [2], the “Curve Class” value is recorded as -2.4.
`CN(C)CCc1c[nH]c2ccc(O)cc12` [NCGC00247724-01]: under setting [1], the “Efficacy (%)” value is -23%, the “Curve Class” value is -2.4 and the pIC50 is 3.95.
On to `CCOC(=O)c1nnc(NS(=O)(=O)c2ccc(NC(=O)Cc3ccc(Cl)c(Cl)c3)cc2)s1.O=C(O)C(F)(F)F` [NCGC00248354-02], for which, under setting [1], the “Efficacy (%)” value was -28% and the pIC50 was 4.50.
As for `Cc1c2c(=O)n(-c3ccccc3)[nH]c2cc(=O)n1Cc1ccco1.O=C(O)C(F)(F)F` [NCGC00248469-01], under setting [1], the “Efficacy (%)” value was -43% and the pIC50 is 4.25. For the same molecule, under setting [2], the “Curve Class” value is on record as -2.4.
The matching figures for `Cc1c2c(=O)n(-c3ccccc3)[nH]c2cc(=O)n1CCc1ccccc1.O=C(O)C(F)(F)F` [NCGC00248471-01]: -28%, 4.30 and -2.4.
`Cc1c2c(=O)n(-c3ccccc3)[nH]c2cc(=O)n1Cc1ccncc1.O=C(O)C(F)(F)F` [NCGC00248478-01]: under setting [1], the “Efficacy (%)” value is recorded as -31% and the pIC50 was 4.30. Under setting [2], the “Curve Class” value is given as -2.4.

Usually pIC50 stands for the negative decadic logarithm of the IC50, by convention in mol/L.
